Laboratory results published in the NIST ThermoML archive (doi:10.1016/j.jct.2015.12.027).
Numbers after ± are expanded uncertainties.

Columns and labels:
[1] = refractive index (Na D-line) (dimensionless); xn = mol fraction of the nth substance listed; conditions: 81.5 kPa, Liquid, Standard Abbe refractometry
[2] = xn = mol fraction of the nth substance listed; conditions: 81.5 kPa, Liquid, Vibrating tube method

Compound: Clc1ccccc1 [chlorobenzene] + ClCCCl
- refractive index ([1]; 293.15 K, x2 = 0): 1.52455 ± 0.01
- refractive index ([1]; 293.15 K, x2 = 0.1022): 1.51915 ± 0.01
- refractive index ([1]; 293.15 K, x2 = 0.2027): 1.51388 ± 0.01
- refractive index ([1]; 293.15 K, x2 = 0.3126): 1.50734 ± 0.01
- refractive index ([1]; 293.15 K, x2 = 0.4014): 1.50115 ± 0.01
- refractive index ([1]; 293.15 K, x2 = 0.4994): 1.49334 ± 0.01
- refractive index ([1]; 293.15 K, x2 = 0.6002): 1.48436 ± 0.01
- refractive index ([1]; 293.15 K, x2 = 0.7): 1.47478 ± 0.01
- refractive index ([1]; 293.15 K, x2 = 0.7999): 1.46481 ± 0.01
- refractive index ([1]; 293.15 K, x2 = 0.9007): 1.45465 ± 0.01
- refractive index ([1]; 303.15 K, x2 = 0): 1.51902 ± 0.01
- refractive index ([1]; 303.15 K, x2 = 0.1022): 1.51376 ± 0.01
- refractive index ([1]; 303.15 K, x2 = 0.2027): 1.50871 ± 0.01
- refractive index ([1]; 303.15 K, x2 = 0.3126): 1.50235 ± 0.01
- refractive index ([1]; 303.15 K, x2 = 0.4014): 1.49625 ± 0.01
- refractive index ([1]; 303.15 K, x2 = 0.4994): 1.48847 ± 0.01
- refractive index ([1]; 303.15 K, x2 = 0.6002): 1.47949 ± 0.01
- refractive index ([1]; 303.15 K, x2 = 0.7): 1.46991 ± 0.01
- refractive index ([1]; 303.15 K, x2 = 0.7999): 1.45993 ± 0.01
- refractive index ([1]; 303.15 K, x2 = 0.9007): 1.44969 ± 0.01
- refractive index ([1]; 313.15 K, x2 = 0): 1.51346 ± 0.01
- refractive index ([1]; 313.15 K, x2 = 0.1022): 1.50848 ± 0.01
- refractive index ([1]; 313.15 K, x2 = 0.2027): 1.50361 ± 0.01
- refractive index ([1]; 313.15 K, x2 = 0.3126): 1.49739 ± 0.01
- refractive index ([1]; 313.15 K, x2 = 0.4014): 1.49135 ± 0.01
- refractive index ([1]; 313.15 K, x2 = 0.4994): 1.48362 ± 0.01
- refractive index ([1]; 313.15 K, x2 = 0.6002): 1.47465 ± 0.01
- refractive index ([1]; 313.15 K, x2 = 0.7): 1.46504 ± 0.01
- refractive index ([1]; 313.15 K, x2 = 0.7999): 1.455 ± 0.01
- refractive index ([1]; 313.15 K, x2 = 0.9007): 1.44464 ± 0.01
- refractive index ([1]; 323.15 K, x2 = 0): 1.50781 ± 0.01
- refractive index ([1]; 323.15 K, x2 = 0.1022): 1.50327 ± 0.01
- refractive index ([1]; 323.15 K, x2 = 0.2027): 1.49855 ± 0.01
- refractive index ([1]; 323.15 K, x2 = 0.3126): 1.4924 ± 0.01
- refractive index ([1]; 323.15 K, x2 = 0.4014): 1.48642 ± 0.01
- refractive index ([1]; 323.15 K, x2 = 0.4994): 1.47874 ± 0.01
- refractive index ([1]; 323.15 K, x2 = 0.6002): 1.4698 ± 0.01
- refractive index ([1]; 323.15 K, x2 = 0.7): 1.46017 ± 0.01
- refractive index ([1]; 323.15 K, x2 = 0.7999): 1.45001 ± 0.01
- refractive index ([1]; 323.15 K, x2 = 0.9007): 1.43948 ± 0.01
- refractive index ([1]; 333.15 K, x2 = 0): 1.50223 ± 0.01
- refractive index ([1]; 333.15 K, x2 = 0.1022): 1.49826 ± 0.01
- refractive index ([1]; 333.15 K, x2 = 0.2027): 1.49366 ± 0.01
- refractive index ([1]; 333.15 K, x2 = 0.3126): 1.4875 ± 0.01
- refractive index ([1]; 333.15 K, x2 = 0.4014): 1.48154 ± 0.01
- refractive index ([1]; 333.15 K, x2 = 0.4994): 1.47393 ± 0.01
- refractive index ([1]; 333.15 K, x2 = 0.6002): 1.46504 ± 0.01
- refractive index ([1]; 333.15 K, x2 = 0.7): 1.45535 ± 0.01
- refractive index ([1]; 333.15 K, x2 = 0.7999): 1.44502 ± 0.01
- refractive index ([1]; 333.15 K, x2 = 0.9007): 1.43427 ± 0.01
- mass density ([2]; 293.15 K, x2 = 0): 1106.49 ± 10 kg/m3
- mass density ([2]; 293.15 K, x2 = 0.1022): 1117.76 ± 10 kg/m3
- mass density ([2]; 293.15 K, x2 = 0.2027): 1129.4 ± 10 kg/m3
- mass density ([2]; 293.15 K, x2 = 0.3126): 1142.87 ± 10 kg/m3
- mass density ([2]; 293.15 K, x2 = 0.4014): 1154.41 ± 10 kg/m3
- mass density ([2]; 293.15 K, x2 = 0.4994): 1167.89 ± 10 kg/m3
- mass density ([2]; 293.15 K, x2 = 0.6002): 1182.73 ± 10 kg/m3
- mass density ([2]; 293.15 K, x2 = 0.7): 1198.46 ± 10 kg/m3
- mass density ([2]; 293.15 K, x2 = 0.7999): 1215.33 ± 10 kg/m3
- mass density ([2]; 293.15 K, x2 = 0.9007): 1233.56 ± 10 kg/m3
- mass density ([2]; 303.15 K, x2 = 0): 1095.71 ± 10 kg/m3
- mass density ([2]; 303.15 K, x2 = 0.1022): 1106.63 ± 10 kg/m3
- mass density ([2]; 303.15 K, x2 = 0.2027): 1117.99 ± 10 kg/m3
- mass density ([2]; 303.15 K, x2 = 0.3126): 1131.14 ± 10 kg/m3
- mass density ([2]; 303.15 K, x2 = 0.4014): 1142.36 ± 10 kg/m3
- mass density ([2]; 303.15 K, x2 = 0.4994): 1155.52 ± 10 kg/m3
- mass density ([2]; 303.15 K, x2 = 0.6002): 1169.98 ± 10 kg/m3
- mass density ([2]; 303.15 K, x2 = 0.7): 1185.33 ± 10 kg/m3
- mass density ([2]; 303.15 K, x2 = 0.7999): 1201.74 ± 10 kg/m3
- mass density ([2]; 303.15 K, x2 = 0.9007): 1219.46 ± 10 kg/m3
- mass density ([2]; 313.15 K, x2 = 0): 1084.86 ± 10 kg/m3
- mass density ([2]; 313.15 K, x2 = 0.1022): 1095.44 ± 10 kg/m3
- mass density ([2]; 313.15 K, x2 = 0.2027): 1106.5 ± 10 kg/m3
- mass density ([2]; 313.15 K, x2 = 0.3126): 1119.28 ± 10 kg/m3
- mass density ([2]; 313.15 K, x2 = 0.4014): 1130.2 ± 10 kg/m3
- mass density ([2]; 313.15 K, x2 = 0.4994): 1142.99 ± 10 kg/m3
- mass density ([2]; 313.15 K, x2 = 0.6002): 1157.05 ± 10 kg/m3
- mass density ([2]; 313.15 K, x2 = 0.7): 1171.98 ± 10 kg/m3
- mass density ([2]; 313.15 K, x2 = 0.7999): 1187.98 ± 10 kg/m3
- mass density ([2]; 313.15 K, x2 = 0.9007): 1205.18 ± 10 kg/m3
- mass density ([2]; 323.15 K, x2 = 0): 1073.96 ± 10 kg/m3
- mass density ([2]; 323.15 K, x2 = 0.1022): 1084.22 ± 10 kg/m3
- mass density ([2]; 323.15 K, x2 = 0.2027): 1094.94 ± 10 kg/m3
- mass density ([2]; 323.15 K, x2 = 0.3126): 1107.34 ± 10 kg/m3
- mass density ([2]; 323.15 K, x2 = 0.4014): 1117.94 ± 10 kg/m3
- mass density ([2]; 323.15 K, x2 = 0.4994): 1130.34 ± 10 kg/m3
- mass density ([2]; 323.15 K, x2 = 0.6002): 1143.96 ± 10 kg/m3
- mass density ([2]; 323.15 K, x2 = 0.7): 1158.43 ± 10 kg/m3
- mass density ([2]; 323.15 K, x2 = 0.7999): 1173.96 ± 10 kg/m3
- mass density ([2]; 323.15 K, x2 = 0.9007): 1190.75 ± 10 kg/m3
- mass density ([2]; 333.15 K, x2 = 0): 1063.01 ± 10 kg/m3
- mass density ([2]; 333.15 K, x2 = 0.1022): 1073.02 ± 10 kg/m3
- mass density ([2]; 333.15 K, x2 = 0.2027): 1083.38 ± 10 kg/m3
- mass density ([2]; 333.15 K, x2 = 0.3126): 1095.38 ± 10 kg/m3
- mass density ([2]; 333.15 K, x2 = 0.4014): 1105.63 ± 10 kg/m3
- mass density ([2]; 333.15 K, x2 = 0.4994): 1117.61 ± 10 kg/m3
- mass density ([2]; 333.15 K, x2 = 0.6002): 1130.77 ± 10 kg/m3
- mass density ([2]; 333.15 K, x2 = 0.7): 1144.78 ± 10 kg/m3
- mass density ([2]; 333.15 K, x2 = 0.7999): 1159.89 ± 10 kg/m3
- mass density ([2]; 333.15 K, x2 = 0.9007): 1176.31 ± 10 kg/m3
